Experimental data taken from the supplement of paper PMC10307832.

Compound: CCOC1=CC=CC=C1N=NC2=C(NN(C2=O)C3=NC(=CS3)C4=CC=CC=C4)C [BAM7] + COc1cccc2cc(-c3nc([C@H]4CC[C@H](C(=O)O)CC4)n4ncnc(N)c34)[nH]c12 [OSI-027] (partner 0.5 µM)
Test: relative viability (nuclei count vs DMSO), 5 days (fraction); higher = more cells survive
Settings: first compound 0.5 µM
In short: (§1)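 Lung cancer cell lines were pin-tool dosed in 1536-well plates on the day after seeding, with either a lone drug or a fixed anchor-drug dose plus five library-drug doses (not always all listed) in √10 steps. Nuclei were counted on 4× images after 5 days. Relative viability is the ratio of treated-well to vehicle-well nuclei counts, with each value a median of duplicate plates.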

Cell Line | relative viability
SK-LU-1 | 0.33
NCI-H1395 | 0.684
201T | 0.772
NCI-H1915 | 0.687
HCC-827 | 0.798
LXF-289 | 0.923
NCI-H23 | 0.492
NCI-H647 | 0.613
CAL-12T | 0.553
NCI-H1651 | 0.657
EPLC-272H | 0.289
NCI-H2228 | 0.716
NCI-H1792 | 0.694
NCI-H1355 | 0.441
NCI-H3122 | 1.03
NCI-H1437 | 1.19
NCI-H1755 | 0.81
NCI-H2023 | 0.357
HCC-15 | 0.727
NCI-H1793 | 0.271
PC-14 | 0.872
EKVX | 0.648
LC-2-ad | 0.918
NCI-H1944 | 0.39
NCI-H1975 | 0.496
RERF-LC-KJ | 0.472
ABC-1 | 0.491
NCI-H358 | 0.832
NCI-H650 | 0.505

Same assay, conditions: first compound 5 µM

Cell Line | relative viability
NCI-H322M | 0.617
LCLC-97TM1 | 0.469
NCI-H2009 | 0.758
A-427 | 0.466
NCI-H441 | 0.574
NCI-H661 | 0.704
NCI-H1734 | 0.657
NCI-H460 | 0.468
NCI-H2347 | 0.446
SK-LU-1 | 0.362
NCI-H1395 | 0.67
201T | 0.662
NCI-H1915 | 0.674
HCC-827 | 0.794
LXF-289 | 0.909
NCI-H23 | 0.561
NCI-H647 | 0.622
CAL-12T | 0.492
NCI-H1651 | 0.758

Cell Line | relative viability
NCI-H2228 | 0.545
NCI-H1792 | 0.71
NCI-H1355 | 0.374
NCI-H3122 | 1.11
NCI-H1437 | 0.985
NCI-H1755 | 0.698
NCI-H2023 | 0.347
HCC-15 | 0.696
NCI-H1793 | 0.267
PC-14 | 0.898
EKVX | 0.768
LC-2-ad | 0.865
NCI-H1944 | 0.439
NCI-H1975 | 0.525
RERF-LC-KJ | 0.422
ABC-1 | 0.504
NCI-H358 | 0.899
NCI-H650 | 0.591

Same assay, conditions: first compound 15.81 µM

Cell Line | relative viability
NCI-H322M | 0.57
LCLC-97TM1 | 0.505
NCI-H2009 | 0.581
A-427 | 0.491
NCI-H441 | 0.639
NCI-H661 | 0.761
NCI-H1734 | 0.602
NCI-H460 | 0.55
SK-LU-1 | 0.345
NCI-H1395 | 0.704
201T | 0.708
NCI-H1915 | 0.6
HCC-827 | 0.775
LXF-289 | 0.761
NCI-H23 | 0.451
NCI-H647 | 0.549
CAL-12T | 0.432
NCI-H1651 | 0.7
EPLC-272H | 0.277

Cell Line | relative viability
NCI-H2228 | 0.593
NCI-H1792 | 0.553
NCI-H1355 | 0.385
NCI-H3122 | 1.01
NCI-H1437 | 0.883
NCI-H1755 | 0.689
NCI-H2023 | 0.297
HCC-15 | 0.7
NCI-H1793 | 0.25
PC-14 | 0.764
EKVX | 0.557
LC-2-ad | 0.8
NCI-H1944 | 0.434
NCI-H1975 | 0.465
RERF-LC-KJ | 0.334
ABC-1 | 0.474
NCI-H358 | 0.796
NCI-H650 | 0.493

Same assay, conditions: first compound 50 µM

Cell Line | relative viability
NCI-H322M | 0.65
LCLC-97TM1 | 0.677
NCI-H2009 | 0.689
A-427 | 0.49
NCI-H441 | 0.694
NCI-H661 | 0.686
NCI-H1734 | 0.647
NCI-H460 | 0.624
NCI-H2347 | 0.4
SK-LU-1 | 0.343
NCI-H1395 | 0.97
201T | 0.705
NCI-H1915 | 0.625
HCC-827 | 0.822
LXF-289 | 0.802
NCI-H23 | 0.526
NCI-H647 | 0.68
CAL-12T | 0.845
NCI-H1651 | 0.653

Cell Line | relative viability
EPLC-272H | 0.32
NCI-H2228 | 0.594
NCI-H1792 | 0.624
NCI-H1355 | 0.395
NCI-H3122 | 1.28
NCI-H1437 | 0.972
NCI-H1755 | 0.719
NCI-H2023 | 0.506
HCC-15 | 0.758
NCI-H1793 | 0.233
PC-14 | 0.926
EKVX | 0.662
LC-2-ad | 0.902
NCI-H1944 | 0.445
NCI-H1975 | 0.532
RERF-LC-KJ | 0.404
ABC-1 | 0.593
NCI-H358 | 0.908
NCI-H650 | 0.589

Compound: CCOC1=CC=CC=C1N=NC2=C(NN(C2=O)C3=NC(=CS3)C4=CC=CC=C4)C [BAM7] + N=C(N)NC(=N)NCCc1ccccc1 [Phenformin] (partner 250 µM)
Test: as above
Settings: first compound 0.5 µM
In short: as §1

Cell Line | relative viability
NCI-H322M | 0.77
LCLC-97TM1 | 0.45
NCI-H2009 | 0.497
A-427 | 0.401
NCI-H441 | 0.866
NCI-H661 | 0.241
NCI-H1734 | 0.41
NCI-H460 | 0.521
NCI-H2347 | 0.622
SK-LU-1 | 0.556
NCI-H1395 | 0.444
201T | 0.465
NCI-H1915 | 0.377
HCC-827 | 0.397
LXF-289 | 0.556
NCI-H23 | 0.816
NCI-H647 | 0.54
CAL-12T | 0.576
NCI-H1651 | 0.306
